From US20160280699A1, “SUBSTITUTED PHENYLALANINE DERIVATIVES” (BAYER PHARMA AKTIENGESELLSCHAFT, priority 2013, published 2016) come the findings set out here.

Counter-ions that a name gives are not always drawn.

Type in all cases: biochemical
Assay [1] has as its target T1, human factor XIa (Homo sapiens, UniProt P03951).
T1 construct: purchased Kordia
As to the kind of experiment: Measurement of FXIa inhibition (fluorogenic peptide substrate Boc-Glu(OBzl)-Ala-Arg-AMC). The note with it: factor XIa from Kordia, 15 min preincubation, 30 min at 22° C., fluorescence.

Assay [2] concerns the target T2, human plasmin (Homo sapiens, UniProt P00747).
T2 construct: purchased Kordia
As to the kind of experiment: Measurement of plasmin inhibition (fluorogenic peptide substrate MeOSuc-Ala-Phe-Lys-AMC). Conditions: plasmin from Kordia, 15 min preincubation, 30 min at 22° C., fluorescence. The method, then:
The plasmin inhibition of the inventive substances is determined using a biochemical test system which utilizes the reaction of a peptidic plasmin substrate to determine the enzymatic activity of human plasmin. Here, plasmin cleaves from the peptic plasmin substrate the C-terminal aminomethylcoumarin (AMC), the fluorescence of which is measured. The determinations are carried out in microtitre plates.
Test substances are dissolved in dimethyl sulphoxide and serially diluted in dimethyl sulphoxide (3000 μM to 0.0078 μM; resulting final concentrations in the test: 50 μM to 0.00013 μM). In each case 1 μl of the diluted substance solutions is placed into the wells of white microtitre plates from Greiner (384 wells). […] After 15 min of incubation, the enzyme reaction is started by addition of 20 μl of the plasmin substrate MeOSuc-Ala-Phe-Lys-AMC dissolved in assay buffer (150 μM in assay buffer) from Bachem, the mixture is incubated at room temperature (22° C.) for 30 min and fluorescence is then measured (excitation: 360 nm, emission: 460 nm). The measured emissions of the test batches with test substance are compared to those of control batches without test substance (only dimethyl sulphoxide instead of test substance in dimethyl sulphoxide), and IC50 values are calculated from the concentration/activity relationships.

For assay [3], the system named is human and animal plasma. Put plainly: Determination of anticoagulatory activity: activated partial thromboplastin time (aPTT) in plasma. Conditions: concentration of test substance which brings about a 1.5-fold extension of the aPTT, 37° C., C.K. Prest kit. Summed up: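 Citrated human or animal plasma (e.g. mouse, rat, rabbit, pig, dog) preincubated 3 min at 37 °C with test substance and cephalin/kaolin PTT reagent. Value is the concentration giving a 1.5-fold aPTT extension.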

A word on the IC50: it is the concentration that inhibits the measured activity by half.

T1 sequence (P03951 388-625 limits assumed): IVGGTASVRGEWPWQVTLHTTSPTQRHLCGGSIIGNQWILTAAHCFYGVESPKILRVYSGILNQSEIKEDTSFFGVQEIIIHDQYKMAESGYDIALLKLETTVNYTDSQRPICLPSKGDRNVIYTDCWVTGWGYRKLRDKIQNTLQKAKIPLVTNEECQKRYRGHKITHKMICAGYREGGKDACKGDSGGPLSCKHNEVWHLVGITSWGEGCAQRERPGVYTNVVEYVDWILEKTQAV
T1 sequence (P03951 19-387 partner limits assumed): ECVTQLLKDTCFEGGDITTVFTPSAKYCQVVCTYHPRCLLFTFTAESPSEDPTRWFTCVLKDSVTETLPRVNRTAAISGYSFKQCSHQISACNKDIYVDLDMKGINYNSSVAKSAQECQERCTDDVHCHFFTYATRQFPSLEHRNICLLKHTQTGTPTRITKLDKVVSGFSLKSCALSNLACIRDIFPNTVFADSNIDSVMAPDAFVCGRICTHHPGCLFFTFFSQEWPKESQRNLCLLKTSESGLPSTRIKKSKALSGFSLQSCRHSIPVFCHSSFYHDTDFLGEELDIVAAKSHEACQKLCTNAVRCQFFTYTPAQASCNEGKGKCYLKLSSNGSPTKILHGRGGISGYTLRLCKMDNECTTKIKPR
T2 sequence (P00747 581-810 limits assumed): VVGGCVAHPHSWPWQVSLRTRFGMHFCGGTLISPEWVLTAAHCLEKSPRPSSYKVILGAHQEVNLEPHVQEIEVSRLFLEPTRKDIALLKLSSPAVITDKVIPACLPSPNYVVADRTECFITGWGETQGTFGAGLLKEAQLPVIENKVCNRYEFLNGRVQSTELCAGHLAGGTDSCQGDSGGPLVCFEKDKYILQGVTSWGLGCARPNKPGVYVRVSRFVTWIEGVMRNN
T2 sequence (P00747 97-580 partner limits assumed): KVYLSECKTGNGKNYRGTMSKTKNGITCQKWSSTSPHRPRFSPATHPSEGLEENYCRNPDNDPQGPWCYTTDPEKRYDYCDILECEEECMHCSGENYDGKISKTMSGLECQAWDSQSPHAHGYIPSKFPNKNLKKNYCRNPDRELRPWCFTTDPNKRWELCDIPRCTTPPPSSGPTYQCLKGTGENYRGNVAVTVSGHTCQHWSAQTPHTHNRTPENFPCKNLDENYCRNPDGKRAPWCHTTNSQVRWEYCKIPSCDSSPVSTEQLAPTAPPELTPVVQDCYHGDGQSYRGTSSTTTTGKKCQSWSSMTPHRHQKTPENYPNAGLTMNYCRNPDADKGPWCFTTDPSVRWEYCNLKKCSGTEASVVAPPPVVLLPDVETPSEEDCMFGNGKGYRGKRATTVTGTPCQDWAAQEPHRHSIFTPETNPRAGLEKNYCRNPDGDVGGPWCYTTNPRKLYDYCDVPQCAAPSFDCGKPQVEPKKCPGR

Take `CC1CN(c2ccc(-c3ccc(C[C@H](NC(=O)C4CCC(CN)CC4)C(=O)Nc4ccc(-c5nn[nH]n5)cc4)cc3)cn2)CC(C)O1` (mixture of isomers) [Example 9, N-alpha-{[trans-4-(Aminomethyl)cyclohexyl]carbonyl}-4-{6-[(2RS,6SR)-2,6-dimethylmorpholin-4-yl]pyridin-3-yl}-N-[4-(2H-tetrazol-5-yl)phenyl]-L-phenylalaninamide hydrochloride]: the concentration for half-maximal inhibition (IC50) in assay [1] was determined as 3.6 nM; in assay [2], 14 nM. In addition, in assay [3], the “aPTT” value is 0.35 µmol/L.

Take `Cc1nc(N)ncc1-c1ccc(C[C@H](NC(=O)C2CCC(CN)CC2)C(=O)Nc2ccc(-c3nnn[nH]3)cc2)cc1` (stereo partly drawn) [Example 55, N-alpha-{[trans-4-(Aminomethyl)cyclohexyl]carbonyl}-4-(2-amino-4-methylpyrimidin-5-yl)-N-[4-(1H-tetrazol-5-yl)phenyl]-L-phenylalaninamide hydrochloride]: in assay [1], the IC50 is 3 nM. Further, in assay [3], the “aPTT” value amounted to 0.22 µmol/L.

As to `CN(C)CCCOc1ccc(-c2ccc(C[C@H](NC(=O)C3CCC(CN)CC3)C(=O)Nc3ccc(-c4nnc(Cl)[nH]4)cc3)cc2)cn1` (stereo partly drawn) [Example 56, N-alpha-{[trans-4-(Aminomethyl)cyclohexyl]carbonyl}-N-[4-(3-chloro-4H-1,2,4-triazol-5-yl)phenyl]-4-{6-[3-(dimethylamino)propoxy]pyridin-3-yl}-L-phenylalaninamide hydrochloride], in assay [1], the IC50 came out at 9.6 nM. For the same compound, in assay [3], the “aPTT” value stood at 0.25 µmol/L.

In turn, `Cc1ccncc1-c1ccc(C[C@H](NC(=O)C2CCC(CN)CC2)C(=O)Nc2ccc(-c3nn[nH]n3)cc2)cc1` (stereo partly drawn) [Example 57, N-alpha-{[trans-4-(Aminomethyl)cyclohexyl]carbonyl}-4-(4-methylpyridin-3-yl)-N-[4-(2H-tetrazol-5-yl)phenyl]-L-phenylalaninamide hydrochloride] gave a half-maximal inhibitory concentration (IC50) in assay [1] of 4.4 nM. In assay [3], the “aPTT” value was 0.35 µmol/L.

On to `CCOC(=O)c1ccc(-c2ccc(C[C@H](NC(=O)[C@H]3CC[C@H](CN)CC3)C(=O)Nc3ccc(-c4nn[nH]n4)cc3)cc2)c(C)n1` [Example 58, Ethyl 5-{4-[(2S)-2-({[trans-4-(aminomethyl)cyclohexyl]carbonyl}amino)-3-oxo-3-{[4-(2H-tetrazol-5-yl)phenyl]amino}propyl]phenyl}-6-methylpyridin-2-carboxylate hydrochloride], for which the concentration for half-maximal inhibition (IC50) in assay [1] came to 0.8 nM; in assay [2], 8.6 nM. For the same compound, in assay [3], the “aPTT” value came out at 0.34 µmol/L.

The compound `Cl.NC[C@H]1CC[C@H](C(=O)N[C@@H](Cc2ccc(-c3cnc(N4CCOCC4)nc3)cc2)C(=O)Nc2ccc(-c3nc(C(F)(F)C(F)(F)C(=O)O)n[nH]3)cc2)CC1` [Example 59, 3-(5-{4-[(N-{[trans-4-(Aminomethyl)cyclohexyl]carbonyl}-4-[2-(morpholin-4-yl)pyrimidin-5-yl]-L-phenylalanyl)amino]phenyl}-1H-1,2,4-triazol-3-yl)-2,2,3,3-tetrafluoropropanoic acid hydrochloride] yielded a concentration for half-maximal inhibition (IC50) in assay [1] of 2.6 nM. In addition, the “aPTT” value in assay [3] is 0.08 µmol/L.
